The values that follow come from patent US9422293B2 (priority 2006, dated 2016).

Counter-ions that a name gives are not always drawn. Like-named read-outs stand apart in the source and are kept apart here. Bounds are passed on as bounds.

This assay concerns the target rat TRPV1 (Rattus norvegicus (Rat), UniProt O35433). The following applies: read-out: Rat IC50.

rat TRPV1, sequence (O35433 whole entry): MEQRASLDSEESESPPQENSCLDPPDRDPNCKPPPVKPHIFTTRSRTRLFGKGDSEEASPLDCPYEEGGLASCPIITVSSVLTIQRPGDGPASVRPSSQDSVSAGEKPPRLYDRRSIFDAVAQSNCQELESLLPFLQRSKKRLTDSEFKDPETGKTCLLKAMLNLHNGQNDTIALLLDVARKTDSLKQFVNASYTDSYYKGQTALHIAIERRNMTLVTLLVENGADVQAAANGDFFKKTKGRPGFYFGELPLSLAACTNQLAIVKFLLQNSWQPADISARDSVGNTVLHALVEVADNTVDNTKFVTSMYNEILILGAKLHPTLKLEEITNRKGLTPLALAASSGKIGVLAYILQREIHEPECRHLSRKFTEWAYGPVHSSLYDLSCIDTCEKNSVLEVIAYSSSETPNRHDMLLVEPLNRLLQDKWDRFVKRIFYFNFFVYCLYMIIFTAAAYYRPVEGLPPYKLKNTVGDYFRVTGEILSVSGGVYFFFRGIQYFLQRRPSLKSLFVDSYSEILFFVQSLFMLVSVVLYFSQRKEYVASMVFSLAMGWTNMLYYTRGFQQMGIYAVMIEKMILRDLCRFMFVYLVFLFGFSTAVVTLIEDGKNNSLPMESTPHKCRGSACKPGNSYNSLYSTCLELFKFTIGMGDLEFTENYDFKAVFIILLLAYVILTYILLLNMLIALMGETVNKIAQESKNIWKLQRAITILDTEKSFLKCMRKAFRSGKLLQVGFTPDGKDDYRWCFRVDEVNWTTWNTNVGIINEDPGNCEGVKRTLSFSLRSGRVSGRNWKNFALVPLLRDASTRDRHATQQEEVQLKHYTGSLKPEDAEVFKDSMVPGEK

`CN(C)c1nc2c(c(NCc3ccc(C(F)(F)F)nc3)n1)CCN(c1ncccc1C(F)(F)F)CC2` [Example 218, N^2,N^2-Dimethyl-7-[3-(trifluoromethyl)pyridin-2-yl]-N^4-{[6-(trifluoromethyl)pyridin-3-yl]methyl}-6,7,8,9-tetrahydro-5H-pyrimido[4,5-d]azepine-2,4-diamine trifluoroacetic acid salt]: the concentration for half-maximal inhibition (IC50) was 120 nM. The same measure, in the same setting: for `CN(C)S(=O)(=O)c1ccc(Nc2nc(N3CCCCC3)nc3c2CCN(c2ncccc2C(F)(F)F)CC3)cc1` [Example 158, N,N-Dimethyl-4-({2-piperidin-1-yl-7-[3-(trifluoromethyl)pyridin-2-yl]-6,7,8,9-tetrahydro-5H-pyrimido[4,5-d]azepin-4-yl}amino)benzenesulfonamide] the value was 60 nM; for `Cc1cc(C(F)(F)F)ccc1Nc1nc(SCc2ccccc2)nc2c1CCN(c1ncccc1C(F)(F)F)CC2` [Example 364, N-[2-Methyl-4-(trifluoromethyl)phenyl]-2-[(phenylmethyl)sulfanyl]-7-[3-(trifluoromethyl)pyridin-2-yl]-6,7,8,9-tetrahydro-5H-pyrimido[4,5-d]azepin-4-amine], 1180 nM; for `CC1CCCN(c2nc3c(c(Nc4ccc(C(F)(F)F)cc4)n2)CCN(c2ncccc2C(F)(F)F)CC3)C1` (stereo not drawn) [Example 240, 2-(3-Methylpiperidin-1-yl)-N-[4-(trifluoromethyl)phenyl]-7-[3-(trifluoromethyl)pyridin-2-yl]-6,7,8,9-tetrahydro-5H-pyrimido[4,5-d]azepin-4-amine trifluoroacetic acid salt], 20 nM.

Regarding `Cc1nc2c(c(Nc3ccc(C(F)(F)F)cn3)n1)CCN(c1ncccc1C(F)(F)F)CC2` [Example 69, [2-Methyl-7-(3-trifluoromethyl-pyridin-2-yl)-6,7,8,9-tetrahydro-5H-pyrimido[4,5-d]azepin-4-yl]-(5-trifluoromethyl-pyridin-2-yl)-amine], the IC50 was found to be 500 nM. Still for that read-out and setting: under `Cc1nc2ccccc2nc1N1CCc2nc(C(C)C)nc(Nc3ccc(C(F)(F)F)cc3)c2CC1` [Example 34, [2-Isopropyl-7-(3-methyl-quinoxalin-2-yl)-6,7,8,9-tetrahydro-5H-pyrimido-[4,5-d]azepin-4-yl]-(4-trifluoromethyl-phenyl)-amine] stands 360 nM; under `COCCN(C)c1nc2c(c(Nc3ccc(C(F)(F)F)cc3)n1)CCN(c1ncccc1C(F)(F)F)CC2` [Example 93B, N^2-(2-Methoxy-ethyl)-N^2-methyl-N^4-(4-trifluoromethyl-phenyl)-7-(3-trifluoromethyl-pyridin-2-yl)-6,7,8,9-tetrahydro-5H-pyrimido[4,5-d]azepine-2,4-diamine trifluoroacetic acid salt], 37 nM. Still for that read-out and setting: under `CC1OCCC1Sc1nc2c(c(Nc3ccc4c(c3)N(C)CCC4(C)C)n1)CCN(c1ncccc1C(F)(F)F)CC2` (stereo not drawn) [Example 374, 2,5-Anhydro-1,4-dideoxy-3-thio-3-S-{7-[3-(trifluoromethyl)pyridin-2-yl]-4-[(1,4,4-trimethyl-1,2,3,4-tetrahydroquinolin-7-yl)amino]-6,7,8,9-tetrahydro-5H-pyrimido[4,5-d]azepin-2-yl}pentitol] stands 4 nM. Same read-out and setting: under `CC(C)(C)c1ccc(Nc2nc(S(C)(=O)=O)nc3c2CCN(c2ncccc2C(F)(F)F)CC3)cc1` [Example 207, N-[4-(1,1-Dimethylethyl)phenyl]-2-(methylsulfonyl)-7-[3-(trifluoromethyl)pyridin-2-yl]-6,7,8,9-tetrahydro-5H-pyrimido[4,5-d]azepin-4-amine] stands 770 nM. For `CC(C)c1nc2c(c(Nc3ccc(S(=O)(=O)N4CCCC4)cc3)n1)CCN(c1ncccc1C(F)(F)F)CC2` [Example 152, 2-(1-Methylethyl)-N-[4-(pyrrolidin-1-ylsulfonyl)phenyl]-7-[3-(trifluoromethyl)pyridin-2-yl]-6,7,8,9-tetrahydro-5H-pyrimido[4,5-d]azepin-4-amine], the IC50 is 550 nM. For the compound `CC(C)(C)c1ccc(Nc2ncnc3c2CCN(c2ncccc2C(F)(F)F)CC3)cc1` [Example 1A, (4-tert-Butyl-phenyl)-[7-(3-trifluoromethyl-pyridin-2-yl)-6,7,8,9-tetrahydro-5H-pyrimido[4,5-d]azepin-4-yl]-amine hydrochloride salt], the IC50 (hydrochloride salt) amounted to 49 nM. Take `CC(C)(C)c1ccc(Nc2nc(N3CCCCC3)nc3c2CCN(c2ncccc2C(F)(F)F)CC3)cc1[N+](=O)[O-]` [Example 159, N-[4-(1,1-Dimethylethyl)-3-nitrophenyl]-2-piperidin-1-yl-7-[3-(trifluoromethyl)pyridin-2-yl]-6,7,8,9-tetrahydro-5H-pyrimido[4,5-d]azepin-4-amine]: the IC50 is 30 nM. On the same count and under the same terms, under `FC(F)(F)c1ccc(Nc2nc(-c3cccs3)nc3c2CCN(c2ncccc2C(F)(F)F)CC3)cc1` [Example 149, 2-(2-Thienyl)-N-[4-(trifluoromethyl)phenyl]-7-[3-(trifluoromethyl)pyridin-2-yl]-6,7,8,9-tetrahydro-5H-pyrimido[4,5-d]azepin-4-amine] stands 150 nM; under `FC(F)(F)c1ccc(Nc2nc(N3CCCCCC3)nc3c2CCN(c2ncccc2C(F)(F)F)CC3)cc1` [Example 222, 2-Azepan-1-yl-N-[4-(trifluoromethyl)phenyl]-7-[3-(trifluoromethyl)pyridin-2-yl]-6,7,8,9-tetrahydro-5H-pyrimido[4,5-d]azepin-4-amine], 20 nM. Regarding `CN(C)c1nc2c(c(Nc3ccc(C(F)(F)F)cn3)n1)CCN(c1ncccc1C(F)(F)F)CC2` [Example 44, N^2,N^2-Dimethyl-N^4-(5-trifluoromethyl-pyridin-2-yl)-7-(3-trifluoro-methyl-pyridin-2-yl)-6,7,8,9-tetrahydro-5H-pyrimido[4,5-d]azepine-2,4-diamine], the concentration for half-maximal inhibition (IC50) is 250 nM. Still for that read-out and setting: under `CC(C)c1nc2c(c(Nc3cnc(C(F)(F)F)cn3)n1)CCN(c1ncccc1C(F)(F)F)CC2` [Example 191, [2-Isopropyl-7-(3-trifluoromethyl-pyridin-2-yl)-6,7,8,9-tetrahydro-5H-pyrimido[4,5-d]azepin-4-yl]-(5-trifluoromethyl-pyrazin-2-yl)-amine] stands 260 nM; under `CC(C)c1nc2c(c(Nc3ccc4c(c3)CCC4)n1)CCN(c1ncccc1C(F)(F)F)CC2` [Example 141, N-(2,3-Dihydro-1H-inden-5-yl)-2-(1-methylethyl)-7-[3-(trifluoromethyl)pyridin-2-yl]-6,7,8,9-tetrahydro-5H-pyrimido[4,5-d]azepin-4-amine hydrochloride salt], 130 nM. Still for that read-out and setting: under `CCS(=O)(=O)c1cccnc1N1CCc2ncnc(Nc3ccc(C(F)(F)F)cc3)c2CC1` [Example 301, 7-[3-(Ethylsulfonyl)pyridin-2-yl]-N-[4-(trifluoromethyl)phenyl]-6,7,8,9-tetrahydro-5H-pyrimido[4,5-d]azepin-4-amine] stands 8970 nM; under `OC[C@@H]1CCCN1c1nc2c(c(Nc3ccc(C(F)(F)F)cn3)n1)CCN(c1ncccc1C(F)(F)F)CC2` [Example 262, [(2S)-1-(7-[3-(Trifluoromethyl)pyridin-2-yl]-4-{[5-(trifluoromethyl)pyridin-2-yl]amino}-6,7,8,9-tetrahydro-5H-pyrimido[4,5-d]azepin-2-yl)pyrrolidin-2-yl]methanol hydrochloride salt], 1640 nM. Still for that read-out and setting: for `Cc1cc(C(F)(F)F)ccc1Nc1nc(N(C)C2CCCCC2)nc2c1CCN(c1ncccc1C(F)(F)F)CC2` [Example 267, N^2-Cyclohexyl-N^2-methyl-N^4-[2-methyl-4-(trifluoromethyl)phenyl]-7-[3-(trifluoromethyl)pyridin-2-yl]-6,7,8,9-tetrahydro-5H-pyrimido[4,5-d]azepine-2,4-diamine] the value was 1870 nM; for `CC(C)(C)c1ccc(Nc2ncnc3c2CCN(c2nncc4ccccc24)CC3)cc1` [Example 37, (4-tert-Butyl-phenyl)-(7-phthalazin-1-yl-6,7,8,9-tetrahydro-5H-pyrimido-[4,5-d]azepin-4-yl)-amine], 150 nM. Turning to `CSc1nc2c(c(Nc3ccc(C(F)(F)F)cc3)n1)CCN(c1ncccc1C(F)(F)F)CC2` [Example 52, [2-Methylsulfanyl-7-(3-trifluoromethyl-pyridin-2-yl)-6,7,8,9-tetrahydro-5H-pyrimido[4,5-d]azepin-4-yl]-(4-trifluoromethyl-phenyl)-amine], the IC50 is 53 nM. As to `CC(Oc1nc2c(c(Nc3ccc(S(=O)(=O)C(F)(F)F)cc3)n1)CCN(c1ncccc1C(F)(F)F)CC2)C1CCCCC1` (stereo not drawn) [Example 318, 2-[(1-Cyclohexylethyl)oxy]-7-[3-(trifluoromethyl)pyridin-2-yl]-N-{4-[(trifluoromethyl)sulfonyl]phenyl}-6,7,8,9-tetrahydro-5H-pyrimido[4,5-d]azepin-4-amine], the IC50 is > 6670 nM.

Regarding `Cc1cc(C(F)(F)F)ccc1Nc1nc(OC2CCOC2)nc2c1CCN(c1ncccc1C(F)(F)F)CC2` (stereo not drawn) [Example 313, N-[2-Methyl-4-(trifluoromethyl)phenyl]-2-(tetrahydrofuran-3-yloxy)-7-[3-(trifluoromethyl)pyridin-2-yl]-6,7,8,9-tetrahydro-5H-pyrimido[4,5-d]azepin-4-amine], the IC50 was found to be 560 nM.

As for `FC(F)(F)c1ccc(Nc2nc(C3CC3)nc3c2CCN(c2ncccc2C(F)(F)F)CC3)cc1` [Example 5A, [2-Cyclopropyl-7-(3-trifluoromethyl-pyridin-2-yl)-6,7,8,9-tetrahydro-5H-pyrimido[4,5-d]azepin-4-yl]-(4-trifluoromethyl-phenyl)-amine hydrochloride salt], where the note is “hydrochloride salt”, the IC50 amounted to 190 nM. For `FC(F)(F)c1ccc(Nc2nc(OC3CCOCC3)nc3c2CCN(c2ncccc2C(F)(F)F)CC3)cc1` [Example 339, 2-(Tetrahydro-2H-pyran-4-yloxy)-N-[4-(trifluoromethyl)phenyl]-7-[3-(trifluoromethyl)pyridin-2-yl]-6,7,8,9-tetrahydro-5H-pyrimido[4,5-d]azepin-4-amine], the IC50 is 190 nM.

For `FC(F)(F)c1ccc(Nc2nc(N3CCCCCC3)nc3c2CCN(c2ncccc2C(F)(F)F)CC3)cc1Cl` [Example 224, 2-Azepan-1-yl-N-[3-chloro-4-(trifluoromethyl)phenyl]-7-[3-(trifluoromethyl)pyridin-2-yl]-6,7,8,9-tetrahydro-5H-pyrimido[4,5-d]azepin-4-amine], the IC50 stood at 20 nM.

As a reminder, the IC50 is the midpoint of a concentration-inhibition curve.
